Experimental data published in patent US5075289A, “9-R-azacyclic erythromycin antibiotics” (priority 1988, dated 1991).
In brackets after ≈: the same amount, converted by molar mass. Where two headings read alike, the source gives them in different places.

What was measured:
Format in all cases: cell-based
[1] = system: Staphylococcus aureus 45 RAR 2; experiment: microbe, parasite or virus in culture; settings: 45RAR2
Outline: (§1)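 In agar dilution on Brain Heart Infusion agar, twelve successive compound dilutions were inoculated at 1:100 (1:10 for slow growers such as Streptococcus) by replicator and incubated 20–24 h at 35–37 °C. MIC is the lowest concentration giving no growth, slight haze or sparse colonies; erythromycin A was the class control.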

[2] = system: Staphylococcus aureus 45; experiment: In vitro antibacterial activity, agar dilution MIC; settings: S. aureus 45, Brain Heart Infusion agar, 20-24 hours, read-out: MIC
Outline: as §1

[3] = system: Haemophilus influenzae SOL AMP R; experiment: In vitro antibacterial activity, agar dilution MIC; settings: H. influenzae SOL AMP R
Outline: as §1

[4] = system: Haemophilus influenzae 632A; experiment: In vitro antibacterial activity, agar dilution MIC; settings: H. influenzae 632A
Outline: as §1

[5] = system: Escherichia coli Juhl; experiment: In vitro antibacterial activity, agar dilution MIC
Outline: as §1

[6] = system: Haemophilus influenzae ATCC 10211; experiment: In vitro antibacterial activity, agar dilution MIC; settings: ATCC10211, H. influenzae ATCC 10211
Outline: as §1

[7] = system: Haemophilus influenzae 667A; experiment: In vitro antibacterial activity, agar dilution MIC; settings: H. influenzae 667A
Outline: as §1

[8] = system: Haemophilus influenzae SPK AMP R; experiment: In vitro antibacterial activity, agar dilution MIC; settings: H. influenzae SPK AMP R
Outline: as §1

[9] = system: Micrococcus luteus ATCC 9341; experiment: In vitro antibacterial activity, agar dilution MIC; settings: ATCC9341, M. luteus ATCC 9341, Brain Heart Infusion agar, 20-24 hours, read-out: MIC
Outline: as §1

[10] = system: Streptococcus pyogenes 930 CONST; experiment: In vitro antibacterial activity, agar dilution MIC; settings: 930CONST
Outline: as §1

[11] = system: Staphylococcus aureus A5177; experiment: In vitro antibacterial activity, agar dilution MIC; settings: S. aureus A5177, Brain Heart Infusion agar, 20-24 hours, read-out: MIC
Outline: as §1

[12] = system: Staphylococcus aureus CMX 553; experiment: In vitro antibacterial activity, agar dilution MIC; settings: CMX553, S. aureus CMX 553, Brain Heart Infusion agar, 20-24 hours, read-out: MIC
Outline: as §1

[13] = system: Haemophilus influenzae 588A; experiment: In vitro antibacterial activity, agar dilution MIC; settings: H. influenzae 588A
Outline: as §1

[14] = system: Haemophilus influenzae 1177; experiment: In vitro antibacterial activity, agar dilution MIC; settings: H. influenzae 1177
Outline: as §1

[15] = system: Streptococcus agalactiae CMX 508; experiment: In vitro antibacterial activity, agar dilution MIC; settings: CMX508, S. agalactiae CMX 508, Brain Heart Infusion agar, 20-24 hours, read-out: MIC
Outline: as §1

[16] = system: Escherichia coli H560; experiment: In vitro antibacterial activity, agar dilution MIC; settings: E. coli H560, Brain Heart Infusion agar, 20-24 hours, read-out: MIC
Outline: as §1

[17] = system: Enterococcus faecium ATCC 8043; experiment: In vitro antibacterial activity, agar dilution MIC; settings: ATCC8043
Outline: as §1

[18] = system: Haemophilus influenzae 519A; experiment: In vitro antibacterial activity, agar dilution MIC; settings: H. influenzae 519A
Outline: as §1

[19] = system: Haemophilus influenzae DILL AMP R; experiment: In vitro antibacterial activity, agar dilution MIC; settings: H. influenzae DILL AMP R
Outline: as §1

[20] = system: Staphylococcus epidermidis 3519; experiment: In vitro antibacterial activity, agar dilution MIC; settings: S. epidermidis 3519, Brain Heart Infusion agar, 20-24 hours, read-out: MIC
Outline: as §1

[21] = system: Haemophilus influenzae 504; experiment: In vitro antibacterial activity, agar dilution MIC; settings: H. influenzae 504
Outline: as §1

[22] = system: Streptococcus bovis A5169; experiment: In vitro antibacterial activity, agar dilution MIC; settings: read-out: MIC
Outline: as §1

[23] = system: Haemophilus influenzae 747C; experiment: In vitro antibacterial activity, agar dilution MIC; settings: H. influenzae 747C
Outline: as §1

[24] = system: Haemophilus influenzae 503B; experiment: In vitro antibacterial activity, agar dilution MIC; settings: H. influenzae 503B
Outline: as §1

[25] = system: Staphylococcus aureus ATCC 6538P; experiment: In vitro antibacterial activity, agar dilution MIC; settings: ATCC6538P
Outline: as §1

[26] = system: Micrococcus luteus ATCC 4698; experiment: In vitro antibacterial activity, agar dilution MIC; settings: ATCC4698, read-out: MIC
Outline: as §1

[27] = system: Haemophilus influenzae 751; experiment: In vitro antibacterial activity, agar dilution MIC; settings: H. influenzae 751
Outline: as §1

[28] = system: Staphylococcus aureus 642A; experiment: In vitro antibacterial activity, agar dilution MIC; settings: S. aureus 642A, Brain Heart Infusion agar, 20-24 hours, read-out: MIC
Outline: as §1

[29] = system: Haemophilus influenzae ATCC 19418; experiment: In vitro antibacterial activity, agar dilution MIC; settings: ATCC19418, H. influenzae ATCC 19418
Outline: as §1

[30] = system: Escherichia coli DC-2; experiment: In vitro antibacterial activity, agar dilution MIC; settings: DC2
Outline: as §1

[31] = system: Streptococcus pyogenes EES61; experiment: In vitro antibacterial activity, agar dilution MIC; settings: S. pyogenes EES61, Brain Heart Infusion agar, 20-24 hours, read-out: MIC
Outline: as §1

[32] = system: Escherichia coli SS; experiment: In vitro antibacterial activity, agar dilution MIC; settings: read-out: MIC
Outline: as §1

[33] = system: Haemophilus influenzae 566A; experiment: In vitro antibacterial activity, agar dilution MIC; settings: H. influenzae 566A
Outline: as §1

[34] = system: Streptococcus pyogenes 2548 INDUC; experiment: In vitro antibacterial activity, agar dilution MIC
Outline: as §1

[35] = system: Haemophilus influenzae ATCC 9795; experiment: In vitro antibacterial activity, agar dilution MIC; settings: ATCC9795, H. influenzae ATCC 9795
Outline: as §1

[36] = system: Staphylococcus aureus NCTC 10649; experiment: In vitro antibacterial activity, agar dilution MIC; settings: NCTC10649, S. aureus NCTC 10649, Brain Heart Infusion agar, 20-24 hours, read-out: MIC
Outline: as §1

[37] = system: Haemophilus influenzae 1435; experiment: In vitro antibacterial activity, agar dilution MIC; settings: H. influenzae 1435
Outline: as §1

Structure (SMILES)	MIC [1] [µg/mL]	MIC [2] [µg/mL]	MIC [3] [µg/mL]	MIC [4] [µg/mL]	MIC [5] [µg/mL]	MIC [6] [µg/mL]	MIC [7] [µg/mL]	MIC [8] [µg/mL]	MIC [9] [µg/mL]	MIC [10] [µg/mL]	MIC [11] [µg/mL]	MIC [12] [µg/mL]	MIC [13] [µg/mL]	MIC [14] [µg/mL]	MIC [15] [µg/mL]	MIC [16] [µg/mL]	MIC [17] [µg/mL]	MIC [18] [µg/mL]	MIC [19] [µg/mL]	MIC [20] [µg/mL]	further results
CC[C@H]1OC(=O)[C@H](C)[C@@H](O[C@H]2C[C@@](C)(OC)[C@@H](O)[C@H](C)O2)[C@H](C)[C@@H](O[C@@H]2O[C@H](C)C[C@H](N(C)C)[C@H]2O)[C@](C)(O)C[C@@H](C)[C@@H](N2CCC(C)(C)CC2)[C@H](C)[C@@H](O)[C@]1(C)O [Example 7]	0.39 (≈ 0.469 µM)	0.2 (≈ 0.241 µM)	0.5 (≈ 0.602 µM)	1 (≈ 1.2 µM)	12.5 (≈ 15 µM)	1 (≈ 1.2 µM)	1 (≈ 1.2 µM)	1 (≈ 1.2 µM)	≤ 0.05	> 100	3.1 (≈ 3.73 µM)	0.39 (≈ 0.469 µM)	1 (≈ 1.2 µM)	0.25 (≈ 0.301 µM)	≤ 0.05	3.1 (≈ 3.73 µM)	0.1 (≈ 0.12 µM)	0.5 (≈ 0.602 µM)	1 (≈ 1.2 µM)	0.39 (≈ 0.469 µM)	MIC [21]: 1 µg/mL (≈ 1.2 µM); MIC ([22]; S. bovis A5169, Brain Heart Infusion agar, 20-24 hours): ≤ 0.05 µg/mL; MIC [23]: 1 µg/mL (≈ 1.2 µM); MIC [24]: 1 µg/mL (≈ 1.2 µM); MIC [25]: 0.39 µg/mL (≈ 0.469 µM); MIC [26]: 0.2 µg/mL (≈ 0.241 µM); MIC [27]: 1 µg/mL (≈ 1.2 µM); MIC [28]: 0.39 µg/mL (≈ 0.469 µM); MIC [29]: 2 µg/mL (≈ 2.41 µM); MIC [30]: 12.5 µg/mL (≈ 15 µM); MIC [31]: 0.1 µg/mL (≈ 0.12 µM); MIC [32]: 0.2 µg/mL (≈ 0.241 µM); MIC [33]: 2 µg/mL (≈ 2.41 µM); MIC ([34]; S. pyogenes 2548 INDUC, Brain Heart Infusion agar, 20-24 hours, read-out: MIC): 6.2 µg/mL (≈ 7.46 µM); MIC [35]: 1 µg/mL (≈ 1.2 µM); MIC [36]: 0.39 µg/mL (≈ 0.469 µM); MIC [37]: 0.5 µg/mL (≈ 0.602 µM)
CC[C@H]1OC(=O)[C@H](C)[C@@H](O[C@H]2C[C@@](C)(OC)[C@@H](O)[C@H](C)O2)[C@H](C)[C@@H](O[C@@H]2O[C@H](C)C[C@H](N(C)C)[C@H]2O)[C@](C)(O)C[C@@H](C)[C@@H](N2CCC(C)CC2)[C@H](C)[C@@H](O)[C@]1(C)O [Example 6]	0.78 (≈ 0.955 µM)	0.2 (≈ 0.245 µM)	1 (≈ 1.22 µM)	1 (≈ 1.22 µM)	12.5 (≈ 15.3 µM)	1 (≈ 1.22 µM)	2 (≈ 2.45 µM)	1 (≈ 1.22 µM)	0.05 (≈ 0.0612 µM)	> 100	3.1 (≈ 3.79 µM)	0.39 (≈ 0.477 µM)	1 (≈ 1.22 µM)	0.25 (≈ 0.306 µM)	0.1 (≈ 0.122 µM)	3.1 (≈ 3.79 µM)	0.1 (≈ 0.122 µM)	0.5 (≈ 0.612 µM)	1 (≈ 1.22 µM)	0.39 (≈ 0.477 µM)	MIC [21]: 1 µg/mL (≈ 1.22 µM); MIC [22]: 0.02 µg/mL (≈ 0.0245 µM); MIC [23]: 1 µg/mL (≈ 1.22 µM); MIC [24]: 1 µg/mL (≈ 1.22 µM); MIC [25]: 0.39 µg/mL (≈ 0.477 µM); MIC [26]: 0.2 µg/mL (≈ 0.245 µM); MIC [27]: 1 µg/mL (≈ 1.22 µM); MIC [28]: 0.39 µg/mL (≈ 0.477 µM); MIC [29]: 2 µg/mL (≈ 2.45 µM); MIC [30]: 25 µg/mL (≈ 30.6 µM); MIC [31]: 0.1 µg/mL (≈ 0.122 µM); MIC [32]: 0.2 µg/mL (≈ 0.245 µM); MIC [33]: 2 µg/mL (≈ 2.45 µM); MIC ([34]; 2548INDUC): 3.1 µg/mL (≈ 3.79 µM); MIC [35]: 1 µg/mL (≈ 1.22 µM); MIC [36]: 0.78 µg/mL (≈ 0.955 µM); MIC [37]: 1 µg/mL (≈ 1.22 µM)
